From patent US20130005747A1, “METHOD FOR SELECTING A CANCER THERAPY” (Cyclacel Limited, priority 2010, published 2013)
“Also recorded” adds a separate entry of the source.

What was measured:
[1] = system: nasopharyngeal cancer (NPC); test: Clinical study of seliciclib in previously treated advanced solid tumors enriched for NPC; assay type: in vivo, human
Description: The incidence of nasopharyngeal cancer (NPC) varies, with higher rates in southern Asia, intermediate rates in Mediterranean basin countries as well as in Greenland and Alaska populations, and low rates in most of the western countries (Chang et al 2006 Cancer Epidemiol. Biomarkers Prev. v15 p 1765). A clinical study of R-roscovitine (seliciclib) in patients with previously treated advanced solid tumors that was heavily enriched for NPC patients was performed. […] Patients were also evaluated for overall survival, response rate, response duration, safety, and tolerability.
A total of 23 patients were enrolled on the study (11 at 400 mg bid and 12 at 800 mg qd.).
This patient was […] and thus not from one of the patient populations where NPC is more prevalent. K-Ras mutations are extremely rare in NPC patients. A biopsy sample from this patient was analysed for K-Ras mutational status. DNA was extracted from a paraffin embedded tumor sample and analysed for a total of 12 different mutations in Gly12 and Gly13 which represent the most common K-Ras activating mutations. Analysis was performed using a standard PCR-RFLP methodology as has been reported previously (Hatzaki et al 2001 Molecular and Cellular Probes; v15, 243) which identified a K-Ras activating mutation at Gly12 in the tumor sample.
This was a longer period of clinical benefit than achieved with four previous therapies.

SK-MES = test: Fractional growth, 72 h seliciclib; assay type: cell-based, human; conditions: SK-MES (Lung: NSCLC), 15 μM seliciclib
Description: (§1) A total of 270 human cancer cell lines from diverse cancer histopathologic types were investigated.

CAL-29 = test: Fractional growth, 72 h seliciclib; assay type: cell-based, human; conditions: CAL-29 (Bladder), 15 μM seliciclib
Description: as §1

MFM-223 = test: Fractional growth, 72 h seliciclib; assay type: cell-based, human; conditions: MFM-223 (Breast), 15 μM seliciclib
Description: as §1

[2] = system: C-10 murine immortalized pulmonary epithelial cells; test: Growth inhibition of immortalized pulmonary epithelial cells (FIG. 6B); assay type: cell-based
[3] = system: 270 human cancer cell lines; test: Pharmacogenomic analysis of cancer cell lines, summary; assay type: cell-based; conditions: over half of investigated lung, pancreatic, head and neck, esophageal, liver, thyroid, ovarian, uterine, and skin cancer cell lines; 72 hours
Description: as §1

## CC[C@H](CO)Nc1nc(NCc2ccccc2)c2ncn(C(C)C)c2n1 [seliciclib, roscovitine]
[1]; a number of individuals, 400 mg bid or 800 mg qd
  disease response among the NPC patients: prolonged stable disease
[1]; one NPC patient with K-Ras activating mutation at Gly12, schedule B, 800 mg once per day, four days every week
  duration of stable disease: stable disease for over two years; also recorded: stable disease for greater than two years
[1]; patients, 400 mg bid and 800 mg qd, four consecutive days every week
  tolerability: well tolerated
SK-MES
  Fractional Growth: 0.4439
CAL-29
  Fractional Growth: 0.5744
MFM-223
  Fractional Growth: 0.5683
[2]
  growth inhibition (in words): Dose-dependent growth inhibition
[3]
  growth inhibition compared with vehicle treated cells: at least 50%
